Some test systems named below: HCT-15; HOP-62; HT-29; Hs-578T; IGROV-1; K562; MDA-MB-231; NCI-H226; NCI-H23; OVCAR-3; OVCAR-4; OVCAR-5; OVCAR-8; PC-3; SF-539; SK-MEL-2; SNB-19; TK-10; UACC-257.
Common to all, as to test: NCI anticancer screen, dose series, 48 h

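Method: 48-hour compound exposure of cells in 96-well plates, five concentrations, linear interpolation of endpoints. Here, GI50 denotes the concentration required for 50% inhibition of growth.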 Active and inactive are the calls of the source. Cut-off read from the data, not from the text of the source: active = GI50 up to about 1.1 µM and inactive = higher.

On to `CCOC(=O)/C(C(=S)NCc1ccccc1)=C(/N)N1CCCC1`, for which the GI50 in the assay with HCT-15 is over 100 µM; in the assay on HOP-62, > 100 µM (inactive); with HT-29 it was > 100 µM (inactive); with Hs-578T, > 100 µM (inactive); in the assay with IGROV-1, > 100 µM (inactive); in the assay on K562, > 100 µM (inactive). Besides, the GI50 in the assay with MDA-MB-231, in the assay with NCI-H226, with NCI-H23, in the assay with OVCAR-3, with OVCAR-4 and with OVCAR-5 was > 100 µM (inactive) throughout. For the same molecule, the GI50 in the assay on OVCAR-8, in the assay with PC-3, in the assay on SF-539, with SK-MEL-2, with SNB-19 and with TK-10 was > 100 µM (inactive) in each case. The GI50 in the assay with UACC-257 was > 100 µM (inactive).

For the molecule `Cc1c2oc3c(C)cc(F)c(C(=O)NC4C(=O)NC(C(C)C)C(=O)N5CCCC5C(=O)N(C)CC(=O)N(C)C(C(C)C)C(=O)OC4C)c3nc-2c(C(=O)NC2C(=O)NC(C(C)C)C(=O)N3CCCC3C(=O)N(C)CC(=O)N(C)C(C(C)C)C(=O)OC2C)c(N)c1=O` (stereo not given), the GI50 in the assay on HCT-15 is 0.0805 µM; with HOP-62, 0.107 µM (active); in the assay with HT-29, 0.00586 µM (active); in the assay with Hs-578T it was 0.298 µM (active); in the assay with IGROV-1 it was 0.00618 µM (active); with K562, < 0.001 µM (active). Also, the GI50 was 0.647 µM (active) with MDA-MB-231; 0.0234 µM (active) in the assay with NCI-H226; 0.105 µM (active) in the assay with NCI-H23; 0.0336 µM (active) in the assay on OVCAR-3; 0.711 µM (active) with OVCAR-4; 0.214 µM (active) in the assay with OVCAR-5. Besides, the GI50 in the assay on OVCAR-8 was 0.221 µM (active); with PC-3, 0.0179 µM (active); in the assay with SF-539, 0.0681 µM (active); in the assay on SK-MEL-2 it was 0.01 µM (active); in the assay on SNB-19 it was 0.00771 µM (active); with TK-10 it was 0.224 µM (active). Further, the GI50 in the assay with UACC-257 was 0.00395 µM (active).

For `Cc1ccnc2c1c(=O)c1ccccc1n2C`, the GI50 in the assay on HCT-15 was 38 µM; in the assay on HOP-62, 40.7 µM (inactive); in the assay with HT-29, 29.5 µM (inactive); in the assay with Hs-578T, 25.3 µM (inactive); in the assay with IGROV-1 it was 31 µM (inactive); in the assay with K562, 50.7 µM (inactive). The GI50 in the assay on MDA-MB-231 was 31.8 µM (inactive); with NCI-H226 it was 44.7 µM (inactive); in the assay with NCI-H23, 49.1 µM (inactive); in the assay with OVCAR-3, 63.2 µM (inactive); in the assay on OVCAR-4, 35.6 µM (inactive); in the assay on OVCAR-5, 54.5 µM (inactive). For the same molecule, the GI50 with OVCAR-8 is 34.4 µM (inactive); with PC-3, 31.8 µM (inactive); in the assay with SF-539, 29.9 µM (inactive); in the assay with SK-MEL-2, 52.1 µM (inactive); with SNB-19, 15.4 µM (inactive); in the assay on TK-10, 26.3 µM (inactive). In the assay on UACC-257, the GI50 was 37.1 µM (inactive).

With `O=C(CSc1nc2ccc(I)cc2c(=O)n1Cc1ccccc1)NN1C(=O)c2ccccc2C1=O`, the GI50 in the assay on HCT-15 was 30.1 µM; in the assay on HOP-62, 4.75 µM (inactive); in the assay on HT-29, 24.8 µM (inactive); in the assay with Hs-578T it was 6.47 µM (inactive); in the assay with IGROV-1, 19.3 µM (inactive); in the assay with K562, 31 µM (inactive). Moreover, the GI50 with MDA-MB-231 was 11.2 µM (inactive); in the assay with NCI-H226 it was 6.3 µM (inactive); with NCI-H23 it was 18.2 µM (inactive); in the assay with OVCAR-3 it was 11.6 µM (inactive); in the assay on OVCAR-4, 12.2 µM (inactive); with OVCAR-5, 26.2 µM (inactive). The GI50 is 11.8 µM (inactive) with OVCAR-8; 4.09 µM (inactive) in the assay with PC-3; 3.42 µM (inactive) in the assay with SF-539; 10.8 µM (inactive) in the assay on SK-MEL-2; 16.5 µM (inactive) with SNB-19; 13.7 µM (inactive) in the assay on TK-10. Also, in the assay with UACC-257, the GI50 is 17.5 µM (inactive).

Consider `COC(=O)C(CCC(=O)CCl)N1C(=O)c2ccccc2C1=O` (stereo not given), for which the GI50 was 4.25 µM in the assay on HCT-15; 16.1 µM (inactive) with HOP-62; 9.64 µM (inactive) with HT-29; 12.6 µM (inactive) with Hs-578T; 12.4 µM (inactive) in the assay with IGROV-1; 2.38 µM (inactive) with K562. Moreover, the GI50 with MDA-MB-231 was 12.6 µM (inactive); with NCI-H226 it was 18.7 µM (inactive); in the assay with NCI-H23, 9.89 µM (inactive); with OVCAR-3, 11.6 µM (inactive); in the assay on OVCAR-4 it was 14.8 µM (inactive); in the assay on OVCAR-5, 15.9 µM (inactive). Further, the GI50 with OVCAR-8 is 12.3 µM (inactive); with PC-3, 12.9 µM (inactive); in the assay with SF-539, 12.2 µM (inactive); with SK-MEL-2 it was 6.9 µM (inactive); in the assay on SNB-19, 18.7 µM (inactive); in the assay on TK-10, 14.5 µM (inactive). The GI50 in the assay with UACC-257 was 7.18 µM (inactive).

Regarding `CCN(CC)CC/N=c1\c2cc(OC)ccc2[nH]c2c([N+](=O)[O-])ccc(NCCN(CC)CC)c12`, the GI50 was 1.02 µM with HCT-15; 1.18 µM (inactive) in the assay on HOP-62; 0.7 µM (active) with HT-29; 1.46 µM (inactive) in the assay on Hs-578T; 2.34 µM (inactive) in the assay with IGROV-1; 0.306 µM (active) in the assay with K562. Besides, the GI50 was 0.966 µM (active) with MDA-MB-231; 0.955 µM (active) in the assay with NCI-H226; 1.86 µM (inactive) with NCI-H23; 1.92 µM (inactive) in the assay on OVCAR-3; 1.15 µM (inactive) in the assay with OVCAR-4; 1.57 µM (inactive) with OVCAR-5. The GI50 with OVCAR-8 was 0.482 µM (active); with PC-3, 0.706 µM (active); in the assay on SF-539, 1.06 µM (active); with SK-MEL-2, 2.06 µM (inactive); in the assay on SNB-19, 0.794 µM (active); with TK-10, 2.11 µM (inactive). The GI50 in the assay with UACC-257 is 4.17 µM (inactive).

`COc1c(C(=O)O)cccc1-c1cccc(C(=O)NCCN(CCNC(=O)c2cccc(-c3cccc(C(=O)O)c3OC)c2OC)CCNC(=O)c2cccc(-c3cccc(C(=O)O)c3OC)c2OC)c1OC`: the GI50 in the assay with HCT-15 was 65.2 µM; with HOP-62, 58.9 µM (inactive); with HT-29 it was 20.7 µM (inactive); in the assay with Hs-578T, 28 µM (inactive); in the assay on IGROV-1, 39.8 µM (inactive); in the assay on K562 it was 24.3 µM (inactive). Besides, the GI50 was 37.6 µM (inactive) with MDA-MB-231; 32.7 µM (inactive) in the assay on NCI-H226; 64.7 µM (inactive) in the assay with NCI-H23; 18.5 µM (inactive) in the assay on OVCAR-3; 60.5 µM (inactive) in the assay on OVCAR-4; 28.6 µM (inactive) in the assay with OVCAR-5. In addition, the GI50 in the assay with OVCAR-8 was 63 µM (inactive); with PC-3 it was 27.9 µM (inactive); with SF-539 it was 37.2 µM (inactive); with SK-MEL-2 it was 31.8 µM (inactive); in the assay on SNB-19, 52 µM (inactive); in the assay on TK-10, > 100 µM (inactive). Also, in the assay on UACC-257, the GI50 is 62.7 µM (inactive).

Consider `Brc1ccc2[nH]cc(-c3csc(-c4ccccn4)n3)c2c1`, for which the GI50 in the assay on HCT-15 was 16.9 µM; in the assay on HOP-62, 15.8 µM (inactive); with HT-29, 5.12 µM (inactive); with Hs-578T, > 75.2 µM (inactive); in the assay on IGROV-1 it was 23 µM (inactive); with K562 it was 5.38 µM (inactive). The GI50 in the assay with MDA-MB-231 was 22.9 µM (inactive); in the assay with NCI-H226, 11.6 µM (inactive); with NCI-H23 it was 47.4 µM (inactive); in the assay with OVCAR-3, 9.31 µM (inactive); in the assay on OVCAR-4, 14.4 µM (inactive); in the assay on OVCAR-5 it was > 51.1 µM (inactive). The GI50 is 26.9 µM (inactive) in the assay on OVCAR-8; 14.2 µM (inactive) in the assay on PC-3; 25.3 µM (inactive) in the assay with SF-539; 44.8 µM (inactive) in the assay with SK-MEL-2; 35 µM (inactive) in the assay with SNB-19; 24.2 µM (inactive) with TK-10. In the assay on UACC-257, the GI50 was 23 µM (inactive).

Regarding `COCCOC(C)C(=O)C(O)S(=O)(=O)O` (stereo not given), the GI50 with HCT-15 is over 100 µM; in the assay on HOP-62 it was > 100 µM (inactive); in the assay on HT-29, > 100 µM (inactive); with Hs-578T it was > 100 µM (inactive); with IGROV-1 it was > 100 µM (inactive); in the assay with K562, > 100 µM (inactive). Moreover, the GI50 with MDA-MB-231, in the assay with NCI-H226, with NCI-H23, in the assay on OVCAR-3, in the assay on OVCAR-4 and in the assay on OVCAR-5 was > 100 µM (inactive) throughout. Further, the GI50 in the assay on OVCAR-8, in the assay with PC-3, in the assay on SF-539, with SK-MEL-2, in the assay with SNB-19 and in the assay with TK-10 was > 100 µM (inactive) throughout. The GI50 in the assay with UACC-257 was > 100 µM (inactive).

In the case of `COc1cc(O)c2c(c1)C(=O)c1cc3c(c(O)c1C2=O)C(OC1OC(C)C(OC)C(O)C1OC)C(OC)C(C)(O)C3=O` (stereo not given), the GI50 in the assay with HCT-15 is 3.15 µM; in the assay with HOP-62 it was 5.46 µM (inactive); in the assay with HT-29, 3.37 µM (inactive); in the assay on Hs-578T, 8.47 µM (inactive); in the assay with IGROV-1 it was 2.12 µM (inactive); in the assay on K562, 3.58 µM (inactive). The GI50 was 4.44 µM (inactive) in the assay with MDA-MB-231; 2.59 µM (inactive) in the assay with NCI-H226; 5.86 µM (inactive) with NCI-H23; 2.84 µM (inactive) in the assay on OVCAR-3; 4.03 µM (inactive) in the assay with OVCAR-4; 16.1 µM (inactive) with OVCAR-5. In addition, the GI50 in the assay with OVCAR-8 is 2.36 µM (inactive); with PC-3 it was 3.36 µM (inactive); with SF-539, 3.92 µM (inactive); in the assay with SK-MEL-2 it was 8.11 µM (inactive); with SNB-19 it was 6.53 µM (inactive); in the assay with TK-10 it was 3.67 µM (inactive). In the assay on UACC-257, the GI50 is 4.28 µM (inactive).

(Values after ChEMBL document CHEMBL1201862, “PubChem BioAssay data set” (2004).)
